Assays:
[1] = Selectivity for electric eel AChE over horse serum BChE
Acetylcholinesterase [2] = molecular target: T1, Acetylcholinesterase (Electrophorus electricus, UniProt O42275); experiment: Inhibition of electric eel AChE by modified Ellman method
Cholinesterase = Cholinesterase (Equus caballus, UniProt P81908)
Description: Inhibition of horse serum BChE by Ellman's method

Acetylcholinesterase [3] = molecular target: T1, Acetylcholinesterase; experiment: Inhibition of electric eel AChE by enzyme kinetics assay

T1 sequence (O42275 whole entry): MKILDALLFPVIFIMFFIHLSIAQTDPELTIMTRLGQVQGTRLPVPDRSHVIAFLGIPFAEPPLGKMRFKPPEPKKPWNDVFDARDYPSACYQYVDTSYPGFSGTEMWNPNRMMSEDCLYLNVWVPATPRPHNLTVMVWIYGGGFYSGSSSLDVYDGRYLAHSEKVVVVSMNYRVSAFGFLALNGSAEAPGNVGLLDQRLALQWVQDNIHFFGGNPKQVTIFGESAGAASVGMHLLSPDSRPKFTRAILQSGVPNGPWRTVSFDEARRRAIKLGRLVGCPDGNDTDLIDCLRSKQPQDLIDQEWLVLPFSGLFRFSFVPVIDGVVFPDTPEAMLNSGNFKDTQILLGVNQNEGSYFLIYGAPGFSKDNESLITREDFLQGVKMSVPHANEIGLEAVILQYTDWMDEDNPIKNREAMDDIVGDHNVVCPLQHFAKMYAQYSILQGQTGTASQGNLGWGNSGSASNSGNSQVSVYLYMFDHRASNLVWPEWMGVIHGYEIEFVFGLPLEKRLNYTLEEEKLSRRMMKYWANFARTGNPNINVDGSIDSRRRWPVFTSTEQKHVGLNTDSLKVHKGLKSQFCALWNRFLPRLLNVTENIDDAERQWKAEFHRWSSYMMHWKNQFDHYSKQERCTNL
Chain of Cholinesterase (P81908 whole entry): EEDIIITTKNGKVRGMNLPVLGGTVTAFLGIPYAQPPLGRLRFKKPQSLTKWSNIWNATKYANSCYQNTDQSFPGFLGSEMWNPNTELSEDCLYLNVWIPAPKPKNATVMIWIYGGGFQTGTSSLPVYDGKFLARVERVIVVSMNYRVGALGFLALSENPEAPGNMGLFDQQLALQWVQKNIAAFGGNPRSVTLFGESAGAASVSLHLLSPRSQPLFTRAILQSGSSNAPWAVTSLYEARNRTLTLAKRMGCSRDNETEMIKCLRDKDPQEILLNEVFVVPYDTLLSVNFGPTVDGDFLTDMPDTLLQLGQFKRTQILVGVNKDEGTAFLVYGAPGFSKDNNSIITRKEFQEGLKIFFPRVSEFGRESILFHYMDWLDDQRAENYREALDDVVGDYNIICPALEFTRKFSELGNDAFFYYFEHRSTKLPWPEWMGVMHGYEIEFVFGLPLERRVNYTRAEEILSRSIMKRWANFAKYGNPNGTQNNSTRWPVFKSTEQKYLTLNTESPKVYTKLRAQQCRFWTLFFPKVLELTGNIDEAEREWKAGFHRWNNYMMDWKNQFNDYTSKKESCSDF

Row | SMILES | Ratio IC50 [1] | IC50 (Acetylcholinesterase [2]) [nM] | IC50 (Cholinesterase) [nM] | Ki (Acetylcholinesterase [3]) [nM]
1 | COc1ccc2cc3[n+](cc2c1OCCCCCOn1nnc2ccccc21)CCc1cc2c(cc1-3)OCO2 | 8.9 | 280 | 2490 | –
2 | COc1ccc2cc3[n+](cc2c1OCCCOc1cccc2[nH]c4ccccc4c12)CCc1cc2c(cc1-3)OCO2 | – | 1120 | – | –
3 | COc1ccc2cc3[n+](cc2c1OCCCCCCOc1ccccc1)CCc1cc2c(cc1-3)OCO2 | – | 520 | – | –
4 | COc1ccc2cc3[n+](cc2c1OCCCCOn1nnc2ccccc21)CCc1cc2c(cc1-3)OCO2 | 18.6 | 224 | 4170 | –
5 | COc1ccc2cc3[n+](cc2c1OCCCCCCOc1cccc2[nH]c4ccccc4c12)CCc1cc2c(cc1-3)OCO2 | – | 2100 | – | –
6 | COc1ccc2cc3[n+](cc2c1OCCCCOc1cccc2[nH]c4ccccc4c12)CCc1cc2c(cc1-3)OCO2 | – | 856 | – | –
7 | COc1ccc2cc3[n+](cc2c1OCCCOc1ccccc1)CCc1cc2c(cc1-3)OCO2 | – | 123 | – | –
8 | COc1ccc2cc3[n+](cc2c1OCCCOn1nnc2ccccc21)CCc1cc2c(cc1-3)OCO2 | 8 | 359 | 2890 | –
9 | COc1ccc2cc3[n+](cc2c1OCCCCCOc1cccc2[nH]c4ccccc4c12)CCc1cc2c(cc1-3)OCO2 | – | 1680 | – | –
10 | COc1ccc2cc3[n+](cc2c1OCCCCCOc1ccccc1)CCc1cc2c(cc1-3)OCO2 | – | 398 | – | –
11 | COc1ccc2cc3[n+](cc2c1OCCCCCCOn1nnc2ccccc21)CCc1cc2c(cc1-3)OCO2 | 5.5 | 515 | – | –
12 | COc1ccc2cc3[n+](cc2c1OCCOc1cccc2[nH]c4ccccc4c12)CCc1cc2c(cc1-3)OCO2 | – | 1230 | – | –
13 | COc1ccc2cc3[n+](cc2c1OC)CCc1cc2c(cc1-3)OCO2 [BERBERINE CHLORIDE] | – | 374 | – | 289
14 | COc1ccc2cc3[n+](cc2c1OCCOc1ccccc1)CCc1cc2c(cc1-3)OCO2 | – | 224 | – | –
15 | COc1ccc2cc3[n+](cc2c1OCCOn1nnc2ccccc21)CCc1cc2c(cc1-3)OCO2 | – | 375 | – | –

Reference: ChEMBL document CHEMBL1159112, “Synthesis, biological evaluation, and molecular modeling of berberine derivatives as potent acetylcholinesterase inhibitors” (Bioorg Med Chem, 2010)
